For the test, the target named is recombinant human DPP-4 (Homo sapiens, UniProt P27487). Put plainly: recombinant human DPP-4 fluorogenic substrate cleavage assay. In kind it is biochemical. To be noted: compound 10 uM, substrate (H-Ala-Pro)-2-Rh110 10 μM, 1 hour pre-incubation, room temperature; for inhibition at 10 µM: read-out: % Inhib at 10 uM. As for the experimental part: For compound screening, the assay employed measures the activity of recombinant human DPP-4 to cleave the synthetic fluorogenic substrate (H-Ala-Pro)-2—Rh110. The reaction is run in 384-well plates. Compound solutions in assay buffer are pre-incubated with the human recombinant DPP-4 and the reaction is initiated by the addition of the substrate. The product of the reaction is quantified by measuring the fluorescence intensity using Tecan Ultraplate reader. For each compound concentration tested, the percent of inhibition is calculated.
For the determination of IC50 and/or % of inhibition values, the assay is performed at room temperature in 384-well plates using a TECAN Ultra plate reader. Total assay volume is 30 μl. Test compounds are dissolved in 90% (v/v) DMSO/water and diluted in water containing 0.05% (w/v) CHAPS to 3-times the desired assay concentration. For the assay, 10 μl water/CHAPS (±test compound) are added per well, followed by the addition of 10 μl hDPP4 solution (diluted with 1.5× assay buffer, i.e. 37.5 mM Tris/HCl, pH 7.4, 210 mM NaCl, 15 mM KCl, and 0.05% (w/v) CHAPS). The final assay concentrations are […] for hDPP4 according to the enzyme concentrations determined by the Bradford method. After 1 hour of pre-incubation at room temperature, the reaction is started by the addition of 10 μl substrate solution (substrate dilutes in 1.5× assay buffer, final substrate concentration is 10 μM). The effect of the compound on the enzymatic activity is obtained from the linear progression curves and determined from two readings, the first one taken directly after the addition of substrate (t=0 min) and the second one after 1 hour (t=60 min). The apparent inhibition constant, IC50, is calculated from the plot of percentage of inhibition vs. inhibitor concentration using non-linear regression analysis software (XLfit, Vers. 4.0; ID Business Solution Ltd., Guildford, Surrey, UK).

The structures appear in SMILES notation.

recombinant human DPP-4, sequence (P27487 whole entry): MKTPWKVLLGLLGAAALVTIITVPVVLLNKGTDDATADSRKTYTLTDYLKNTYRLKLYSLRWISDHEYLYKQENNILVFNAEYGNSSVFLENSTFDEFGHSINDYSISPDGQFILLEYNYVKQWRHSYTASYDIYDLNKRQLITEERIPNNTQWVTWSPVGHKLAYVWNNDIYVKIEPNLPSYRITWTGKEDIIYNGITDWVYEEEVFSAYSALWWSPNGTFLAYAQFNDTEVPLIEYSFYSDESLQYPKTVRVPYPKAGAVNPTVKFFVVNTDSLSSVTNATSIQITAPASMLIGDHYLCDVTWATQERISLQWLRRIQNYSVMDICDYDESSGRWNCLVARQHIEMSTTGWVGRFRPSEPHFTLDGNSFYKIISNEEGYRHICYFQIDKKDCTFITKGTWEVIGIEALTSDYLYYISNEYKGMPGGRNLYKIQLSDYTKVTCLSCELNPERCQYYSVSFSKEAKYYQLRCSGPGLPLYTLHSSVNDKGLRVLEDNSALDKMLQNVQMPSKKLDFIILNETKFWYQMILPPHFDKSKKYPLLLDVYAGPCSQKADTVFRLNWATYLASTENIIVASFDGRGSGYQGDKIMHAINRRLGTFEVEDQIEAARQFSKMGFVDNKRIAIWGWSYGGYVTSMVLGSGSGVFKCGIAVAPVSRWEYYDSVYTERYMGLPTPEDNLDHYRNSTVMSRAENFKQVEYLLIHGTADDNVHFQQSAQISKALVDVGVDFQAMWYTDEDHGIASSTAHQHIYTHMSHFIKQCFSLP

For the molecule `N[C@@H](CCN1CCCC(c2ccccc2)C1)Cc1cc(F)c(F)cc1F` (stereo partly drawn) [Compound 1, (R)-3-(3-Phenyl-piperidin-1-yl)-1-(2,4,5-trifluoro-benzyl)-propylamine], the inhibition at 10 µM came to 99.9%.
Same read-out and setting: to `COc1ccc(C2CCCN(CC[C@H](N)Cc3cc(F)c(F)cc3F)C2)cc1` (stereo partly drawn) [Compound 2, (R)-3-[3-(4-Methoxy-phenyl)-piperidin-1-yl]-1-(2,4,5-trifluoro-benzyl)-propylamine] belongs 99.5%; to `COc1cccc(C2CCCN(CC[C@H](N)Cc3cc(F)c(F)cc3F)C2)c1` (stereo partly drawn) [Compound 3, (R)-3-[3-(3-Methoxy-phenyl)-piperidin-1-yl]-1-(2,4,5-trifluoro-benzyl)-propylamine], 97.9%; to `COc1ccccc1C1CCCN(CC[C@H](N)Cc2cc(F)c(F)cc2F)C1` (stereo partly drawn) [Compound 4, (R)-3-[3-(2-Methoxy-phenyl)-piperidin-1-yl]-1-(2,4,5-trifluoro-benzyl)-propylamine], 98.9%.
The same measure, in the same setting: to `N[C@@H](CCN1CCCC(c2ccc(C(F)(F)F)cc2)C1)Cc1cc(F)c(F)cc1F` (stereo partly drawn) [Compound 5, (R)-1-(2,4,5-Trifluoro-benzyl)-3-[3-(4-trifluoromethyl-phenyl)-piperidin-1-yl]-propylamine] belongs 99.3%; to `N[C@@H](CCN1CCCC(c2cccc(C(F)(F)F)c2)C1)Cc1cc(F)c(F)cc1F` (stereo partly drawn) [Compound 6, (R)-1-(2,4,5-Trifluoro-benzyl)-3-[3-(3-trifluoromethyl-phenyl)-piperidin-1-yl]-propylamine], 98.9%.
With `N[C@@H](CCN1CCCC(c2ccccc2C(F)(F)F)C1)Cc1cc(F)c(F)cc1F` (stereo partly drawn) [Compound 7, (R)-1-(2,4,5-Trifluoro-benzyl)-3-[3-(2-trifluoromethyl-phenyl)-piperidin-1-yl]-propylamine], the inhibition at 10 µM came out at 98.3%.
On the same count and under the same terms, for `Cc1ccc(C2CCCN(CC[C@H](N)Cc3cc(F)c(F)cc3F)C2)cc1` (stereo partly drawn) [Compound 8, (R)-3-(3-p-Tolyl-piperidin-1-yl)-1-(2,4,5-trifluoro-benzyl)-propylamine] the value was 99.6%.
As for `Cc1cccc(C2CCCN(CC[C@H](N)Cc3cc(F)c(F)cc3F)C2)c1` (stereo partly drawn) [Compound 9, (R)-3-(3-m-Tolyl-piperidin-1-yl)-1-(2,4,5-trifluoro-benzyl)-propylamine], the inhibition at 10 µM was 99.7%.
Same read-out and setting: for `Cc1ccccc1C1CCCN(CC[C@H](N)Cc2cc(F)c(F)cc2F)C1` (stereo partly drawn) [Compound 10, (R)-3-(3-o-Tolyl-piperidin-1-yl)-1-(2,4,5-trifluoro-benzyl)-propylamine] the value was 99.4%; for `N[C@@H](CCN1CCCC(c2ccc(F)cc2)C1)Cc1cc(F)c(F)cc1F` (stereo partly drawn) [Compound 11, (R)-3-[3-(4-Fluoro-phenyl)-piperidin-1-yl]-1-(2,4,5-trifluoro-benzyl)-propylamine], 99.6%; for `N[C@@H](CCN1CCCC(c2cccc(F)c2)C1)Cc1cc(F)c(F)cc1F` (stereo partly drawn) [Compound 12, (R)-3-[3-(3-Fluoro-phenyl)-piperidin-1-yl]-1-(2,4,5-trifluoro-benzyl)-propylamine], 99.7%.
Same read-out and setting: for `N[C@@H](CCN1CCC(c2ccccc2)C1)Cc1cc(F)c(F)cc1F` (stereo partly drawn) [Compound 14, (R)-3-(3-Phenyl-pyrrolidin-1-yl)-1-(2,4,5-trifluoro-benzyl)-propylamine] the value was 99.6%; for `N[C@@H](CCN1CCC(c2cccc(Cl)c2)C1)Cc1cc(F)c(F)cc1F` (stereo partly drawn) [Compound 15, (R)-3-[3-(3-Chloro-phenyl)-pyrrolidin-1-yl]-1-(2,4,5-trifluoro-benzyl)-propylamine], 99.3%.
Same read-out and setting: for `N[C@@H](CCN1CCC(c2ccccc2Cl)C1)Cc1cc(F)c(F)cc1F` (stereo partly drawn) [Compound 16, (R)-3-[3-(2-Chloro-phenyl)-pyrrolidin-1-yl]-1-(2,4,5-trifluoro-benzyl)-propylamine] the value was 99.5%; for `COc1ccc(C2CCN(CC[C@H](N)Cc3cc(F)c(F)cc3F)C2)cc1` (stereo partly drawn) [Compound 17, (R)-3-[3-(4-Methoxy-phenyl)-pyrrolidin-1-yl]-1-(2,4,5-trifluoro-benzyl)-propylamine], 98.4%.
In the case of `COc1cccc(C2CCN(CC[C@H](N)Cc3cc(F)c(F)cc3F)C2)c1` (stereo partly drawn) [Compound 18, (R)-3-[3-(3-Methoxy-phenyl)-pyrrolidin-1-yl]-1-(2,4,5-trifluoro-benzyl)-propylamine], the inhibition at 10 µM came out at 99.2%.
Same read-out and setting: to `COc1ccccc1C1CCN(CC[C@H](N)Cc2cc(F)c(F)cc2F)C1` (stereo partly drawn) [Compound 19, (R)-3-[3-(2-Methoxy-phenyl)-pyrrolidin-1-yl]-1-(2,4,5-trifluoro-benzyl)-propylamine] belongs 99.2%.
Still for that read-out and setting: for `N[C@@H](CCN1CCC(c2ccc(C(F)(F)F)cc2)C1)Cc1cc(F)c(F)cc1F` (stereo partly drawn) [Compound 20, (R)-1-(2,4,5-Trifluoro-benzyl)-3-[3-(4-trifluoromethyl-phenyl)-pyrrolidin-1-yl]-propylamine] the value was 99.1%; for `N[C@@H](CCN1CCC(c2ccc(F)cc2)C1)Cc1cc(F)c(F)cc1F` (stereo partly drawn) [Compound 21, (R)-3-[3-(4-Fluoro-phenyl)-pyrrolidin-1-yl]-1-(2,4,5-trifluoro-benzyl)-propylamine], 99.6%; for `N[C@@H](CCN1CCC(c2cccc(F)c2)C1)Cc1cc(F)c(F)cc1F` (stereo partly drawn) [Compound 22, (R)-3-[3-(3-Fluoro-phenyl)-pyrrolidin-1-yl]-1-(2,4,5-trifluoro-benzyl)-propylamine], 99.6%.
The same measure, in the same setting: for `N[C@@H](CCN1CCC(c2ccccc2F)C1)Cc1cc(F)c(F)cc1F` (stereo partly drawn) [Compound 23, (R)-3-[3-(2-Fluoro-phenyl)-pyrrolidin-1-yl]-1-(2,4,5-trifluoro-benzyl)-propylamine] the value was 99.5%; for `N[C@@H](CCN1CCCCC1)Cc1cc(F)c(F)cc1F` [Compound 24, (R)-3-Piperidin-1-yl-1-(2,4,5-trifluoro-benzyl)-propylamine], 99.3%; for `CC1CCCN(CC[C@H](N)Cc2cc(F)c(F)cc2F)C1` (stereo partly drawn) [Compound 25, (R)-3-(3-Methyl-piperidin-1-yl)-1-(2,4,5-trifluoro-benzyl)-propylamine], 98.6%.
On to `COCC1CCCN(CC[C@H](N)Cc2cc(F)c(F)cc2F)C1` (stereo partly drawn) [Compound 26, (R)-3-(3-Methoxymethyl-piperidin-1-yl)-1-(2,4,5-trifluoro-benzyl)-propylamine], for which the inhibition at 10 µM was found to be 99.5%.
`N[C@@H](CCN1CCCC(c2ccc3c(c2)OCO3)C1)Cc1cc(F)c(F)cc1F` (stereo partly drawn) [Compound 27, (R)-3-(3-Benzo[1,3]dioxol-5-yl-piperidin-1-yl)-1-(2,4,5-trifluoro-benzyl)-propylamine]: the inhibition at 10 µM is 99.7%.
The same measure, in the same setting: for `N[C@@H](CCN1CCCC1)Cc1cc(F)c(F)cc1F` [Compound 28, (R)-3-Pyrrolidin-1-yl-1-(2,4,5-trifluoro-benzyl)-propylamine] the value was 99.1%.
With `N[C@@H](CCN1CC[C@H](c2ccc(F)cc2)C1)Cc1cc(F)c(F)cc1F` [Compound 29], the “% Inhib at 10 uM” value is 99.4%.
